# Numbers after ± are expanded uncertainties.
# Legend:
# [1] = for molar volume: 101.33 kPa, Pycnometric method; for Normal melting temperature: DTA
# [2] = Molar enthalpy of transition or fusion; conditions: Crystal; DSC
"molar volume ([1]; 338.15 K, Crystal) [m3/mol]","molar volume ([1]; 338.15 K, Liquid) [m3/mol]",Normal melting temperature ([1]; Crystal) [°C],Molar enthalpy of transition or fusion [2] [kcal/mol],"molar volume ([1]; 323.15 K, Crystal) [m3/mol]","molar volume ([1]; 323.15 K, Liquid) [m3/mol]",Structure (SMILES)
0.00087 ± 1e-05,0.00093 ± 1e-05,64.2 ± 0.5,28.9 ± 0.478,–,–,"CCCCCCCCCCCCCCCC(=O)OCC(COC(=O)CCCCCCCCCCCCCCC)OC(=O)CCCCCCCCCCCCCCC [1,2,3-propanetriyl tri(hexadecanoate)]"
–,–,49.4 ± 0.5,19.6 ± 0.478,0.0009 ± 1e-05,0.00095 ± 1e-05,COC1=C(OC)C(=O)C(C/C=C(\C)CC/C=C(\C)CC/C=C(\C)CC/C=C(\C)CC/C=C(\C)CC/C=C(\C)CC/C=C(\C)CC/C=C(\C)CC/C=C(\C)CCC=C(C)C)=C(C)C1=O [Coenzyme Q10]

# — the NIST ThermoML archive (doi:10.1016/j.fluid.2005.12.017)
